Results as given in ChEMBL document CHEMBL4346723, “Targeting tropomyosin receptor kinase for cancer therapy” (Eur J Med Chem, 2019).
Blank lines part the entries; values can stand above or below the compound they belong to.

Columns and labels:
[1] = target: T1, Tyrosine-protein kinase JAK2 (Homo sapiens, UniProt O60674); experiment: Inhibition of recombinant C-terminal His6-tagged human JAK2 (808 to end residues) expressed in baculovirus infected SF21 insect cells at 3 uM using Tyr 1054/1055 biotinylated peptide as substrate after 60 mins by Alphascreen assay relative to control
[2] = target: T2, High affinity nerve growth factor receptor (Homo sapiens, UniProt P04629); experiment: Inhibition of recombinant full length human TRKA expressed in U2OS cells using Poly(Glu:Tyr) as substrate after 30 mins by scintillation counting assay
[3] = target: T2, High affinity nerve growth factor receptor; experiment: Inhibition TRKA (unknown origin) by cell based assay
SU-DHL-1 = experiment: cells; settings: Homo sapiens, SU-DHL-1, 48 h
Description: Antiproliferative activity against human SU-DHL1 cells incubated for 48 hrs by sulforhodamine B assay

KARPAS-299 = experiment: cells; settings: Homo sapiens, KARPAS-299, 48 h
Description: Antiproliferative activity against human KARPAS299 cells incubated for 48 hrs by sulforhodamine B assay

cells [4] = settings: Homo sapiens, SUP-M2, 48 h
Description: Antiproliferative activity against human SUP-M2 cells incubated for 48 hrs by sulforhodamine B assay

cells [5] = settings: Homo sapiens, SR-786, 48 h
Description: Antiproliferative activity against human SR786 cells incubated for 48 hrs by sulforhodamine B assay

MV4-11 = experiment: cells; settings: Homo sapiens, MV4-11, 48 h
Description: Antiproliferative activity against human MV4-11 cells incubated for 48 hrs by sulforhodamine B assay

[6] = target: T2, High affinity nerve growth factor receptor; experiment: Inhibition of human TRKA expressed in human AD293 cells assessed as reduction in TrkA phosphorylation at Tyr490 residues preincubated for 20 mins followed by NGF-stimulation measure after 5 mins by ELISA; assay type: cell-based
[7] = target: T2, High affinity nerve growth factor receptor; experiment: Inhibition TRKA (unknown origin)
NTRK1/NTRK2 = NTRK1/NTRK2 (Homo sapiens, UniProt P04629+Q16620); experiment: Inhibition of TRKA/TRKB (unknown origin); assay type: protein assay
OVCAR-3 = experiment: Cytotoxicity against human OVCAR3 cells after 24 to 72 hrs by MTT assay; assay type: functional, cell-based
SK-OV-3 = experiment: Cytotoxicity against human SKOV3 cells after 24 to 72 hrs by MTT assay; assay type: functional, cell-based
[8] = target: T2, High affinity nerve growth factor receptor; experiment: Inhibition of recombinant His-tagged human TRKA cytoplasmic domain (441 to 796 residues) expressed in baculovirus expression system using biotin labelled TK peptide preincubated for 20 mins followed by substrate addition by HTRF assay
[9] = target: T3, BDNF/NT-3 growth factors receptor (Homo sapiens, UniProt Q16620); experiment: Inhibition of TRKB (unknown origin)
[10] = target: Tyrosine-protein kinase BTK (Homo sapiens, UniProt Q06187); experiment: Inhibition of BTK (unknown origin)
[11] = target: T2, High affinity nerve growth factor receptor; experiment: Inhibition of recombinant N- terminal GST-tagged human NTRK1 expressed in baculovirus infected Sf9 cells using Poly(Glu:Tyr) as substrate after 45 mins
Aurora kinase A = target: T4, Aurora kinase A (Homo sapiens, UniProt O14965); experiment: Inhibition of aurora A (unknown origin)
T4 sequence (O14965 whole entry): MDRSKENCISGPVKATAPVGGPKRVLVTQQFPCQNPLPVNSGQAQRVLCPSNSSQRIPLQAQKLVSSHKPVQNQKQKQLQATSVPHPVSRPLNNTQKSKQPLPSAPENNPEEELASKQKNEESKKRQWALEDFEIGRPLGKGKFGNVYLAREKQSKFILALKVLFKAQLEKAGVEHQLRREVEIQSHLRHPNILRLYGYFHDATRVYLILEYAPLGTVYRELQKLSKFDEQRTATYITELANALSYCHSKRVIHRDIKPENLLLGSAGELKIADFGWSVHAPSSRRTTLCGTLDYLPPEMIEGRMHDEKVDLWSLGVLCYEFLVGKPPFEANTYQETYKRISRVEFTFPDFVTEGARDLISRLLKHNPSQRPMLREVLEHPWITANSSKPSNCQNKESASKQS

[12] = target: RAF proto-oncogene serine/threonine-protein kinase (Homo sapiens, UniProt P04049); experiment: Inhibition of c-RAF (unknown origin)
[13] = target: T2, High affinity nerve growth factor receptor; experiment: Inhibition of N- terminal GST-tagged human TRKA cytoplasmic domain (436 to 790 end residues) using TK peptide as substrate after 60 mins by HTRF assay
[14] = target: T3, BDNF/NT-3 growth factors receptor; experiment: Inhibition of N- terminal GST-tagged human TRKB cytoplasmic domain (456 to 822 end residues) expressed in baculovirus expression system using TK peptide as substrate after 60 mins by HTRF assay
[15] = target: NT-3 growth factor receptor (Homo sapiens, UniProt Q16288); experiment: Inhibition of N- terminal GST-tagged human TRKC catalytic domain (456 to 825 end residues) expressed in baculovirus expression system using TK peptide as substrate after 60 mins by HTRF assay
[16] = target: T1, Tyrosine-protein kinase JAK2; experiment: Inhibition of N-terminal His-tagged human JAK2 catalytic domain (826 to 1132 end residues) expressed in baculovirus expression system using TK peptide as substrate after 120 mins by HTRF assay
[17] = target: T2, High affinity nerve growth factor receptor; experiment: Inhibition of NTRK1 in human KM12 cells; assay type: cell-based
K562 = experiment: Growth inhibition of human K562 cells; assay type: functional, cell-based
KM12 = experiment: cells; settings: Homo sapiens
Description: Growth inhibition of human KM12 cells

[18] = Inhibition of TRK (unknown origin); design: species or system Homo sapiens
[19] = Cmax in cancer patient at 100 mg, twice daily; assay type: ADME; design: dose 100 mg; settings: human, in vivo
[20] = Tmax in cancer patient at 100 mg, twice daily; assay type: ADME; settings: human, in vivo
[21] = AUC (0 to 24 hrs) in cancer patient at 100 mg, twice daily; assay type: ADME; design: dose 100 mg, time < 24 hr; settings: human, in vivo
[22] = Half life in healthy volunteer at 100 mg, twice daily; settings: human, in vivo
[23] = Oral bioavailability in healthy volunteer at 100 mg, twice daily; settings: human, in vivo
[24] = Apparent oral clearance in healthy volunteer at 100 mg, twice daily; settings: human, in vivo
[25] = Volume of distribution at steady state in healthy volunteer at 100 mg, twice daily; settings: human, in vivo, read-out: Vdss
[26] = target: T1, Tyrosine-protein kinase JAK2; experiment: Inhibition of recombinant C-terminal His6-tagged human JAK2 (808 to end residues) expressed in baculovirus infected SF21 insect cells using Tyr 1054/1055 biotinylated peptide as substrate after 60 mins by Alphascreen assay
IMR-32 = experiment: Antiproliferative activity against human IMR32 cells by sulforhodamine B assay; assay type: functional, cell-based
MIA PaCa-2 = experiment: Antiproliferative activity against human MIAPaCa2 cells at 10 uM incubated for 48 hrs by MTT assay relative to control; assay type: functional
BXPC-3 = experiment: Antiproliferative activity against human BxPC3 cells at 10 uM incubated for 48 hrs by MTT assay relative to control; assay type: functional
PANC-1 = experiment: Antiproliferative activity against human PANC1 cells at 10 uM incubated for 48 hrs by MTT assay relative to control; assay type: functional

T1 sequence (O60674 whole entry): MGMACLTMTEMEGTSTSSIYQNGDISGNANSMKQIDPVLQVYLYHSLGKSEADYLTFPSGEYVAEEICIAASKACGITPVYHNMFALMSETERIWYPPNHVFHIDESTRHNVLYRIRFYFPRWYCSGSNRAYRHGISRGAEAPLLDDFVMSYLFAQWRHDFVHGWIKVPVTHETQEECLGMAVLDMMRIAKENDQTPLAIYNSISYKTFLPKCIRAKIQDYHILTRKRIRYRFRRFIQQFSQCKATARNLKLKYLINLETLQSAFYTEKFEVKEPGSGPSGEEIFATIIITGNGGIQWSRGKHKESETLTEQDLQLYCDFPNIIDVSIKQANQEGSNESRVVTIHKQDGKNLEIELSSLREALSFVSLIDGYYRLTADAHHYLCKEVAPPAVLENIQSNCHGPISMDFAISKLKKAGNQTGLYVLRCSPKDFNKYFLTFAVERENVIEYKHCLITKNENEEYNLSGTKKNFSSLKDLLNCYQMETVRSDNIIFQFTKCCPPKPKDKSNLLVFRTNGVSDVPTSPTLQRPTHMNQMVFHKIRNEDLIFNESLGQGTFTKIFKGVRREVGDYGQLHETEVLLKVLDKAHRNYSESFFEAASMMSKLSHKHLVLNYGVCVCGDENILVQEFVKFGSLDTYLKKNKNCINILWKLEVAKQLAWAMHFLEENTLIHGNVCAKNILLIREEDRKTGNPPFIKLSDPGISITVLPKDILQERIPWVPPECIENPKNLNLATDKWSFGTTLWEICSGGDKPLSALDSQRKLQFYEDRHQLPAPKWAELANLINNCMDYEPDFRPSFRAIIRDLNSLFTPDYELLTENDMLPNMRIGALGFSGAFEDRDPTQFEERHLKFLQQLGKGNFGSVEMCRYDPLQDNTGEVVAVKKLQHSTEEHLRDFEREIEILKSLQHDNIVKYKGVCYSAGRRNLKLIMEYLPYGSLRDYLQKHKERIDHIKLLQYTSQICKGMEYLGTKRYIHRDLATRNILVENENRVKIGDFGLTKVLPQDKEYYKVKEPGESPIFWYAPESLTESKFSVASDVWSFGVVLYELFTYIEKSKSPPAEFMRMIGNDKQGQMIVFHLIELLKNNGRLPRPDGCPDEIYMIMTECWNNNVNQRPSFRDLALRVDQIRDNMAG
T3 sequence (Q16620 whole entry): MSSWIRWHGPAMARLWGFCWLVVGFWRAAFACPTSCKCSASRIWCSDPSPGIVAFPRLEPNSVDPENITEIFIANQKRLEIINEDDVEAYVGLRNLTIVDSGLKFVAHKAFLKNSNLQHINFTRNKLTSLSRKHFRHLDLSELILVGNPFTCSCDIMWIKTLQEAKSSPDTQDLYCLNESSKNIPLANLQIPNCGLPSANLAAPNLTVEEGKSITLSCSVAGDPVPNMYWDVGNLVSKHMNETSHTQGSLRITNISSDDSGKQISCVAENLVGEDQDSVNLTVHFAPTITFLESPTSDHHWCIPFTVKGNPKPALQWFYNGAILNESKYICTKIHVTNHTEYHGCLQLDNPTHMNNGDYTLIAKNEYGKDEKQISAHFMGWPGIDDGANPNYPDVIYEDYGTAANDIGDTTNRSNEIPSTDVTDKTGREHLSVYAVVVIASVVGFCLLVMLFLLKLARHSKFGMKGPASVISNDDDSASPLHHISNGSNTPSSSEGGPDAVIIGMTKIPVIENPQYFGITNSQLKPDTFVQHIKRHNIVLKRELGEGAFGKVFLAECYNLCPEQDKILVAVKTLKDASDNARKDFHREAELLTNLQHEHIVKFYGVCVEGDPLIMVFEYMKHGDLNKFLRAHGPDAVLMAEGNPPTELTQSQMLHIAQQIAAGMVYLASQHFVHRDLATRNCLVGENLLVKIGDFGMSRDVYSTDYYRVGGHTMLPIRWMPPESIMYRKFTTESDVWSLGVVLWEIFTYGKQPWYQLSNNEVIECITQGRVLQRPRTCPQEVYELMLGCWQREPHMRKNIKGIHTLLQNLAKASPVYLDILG
T2 sequence (P04629 whole entry): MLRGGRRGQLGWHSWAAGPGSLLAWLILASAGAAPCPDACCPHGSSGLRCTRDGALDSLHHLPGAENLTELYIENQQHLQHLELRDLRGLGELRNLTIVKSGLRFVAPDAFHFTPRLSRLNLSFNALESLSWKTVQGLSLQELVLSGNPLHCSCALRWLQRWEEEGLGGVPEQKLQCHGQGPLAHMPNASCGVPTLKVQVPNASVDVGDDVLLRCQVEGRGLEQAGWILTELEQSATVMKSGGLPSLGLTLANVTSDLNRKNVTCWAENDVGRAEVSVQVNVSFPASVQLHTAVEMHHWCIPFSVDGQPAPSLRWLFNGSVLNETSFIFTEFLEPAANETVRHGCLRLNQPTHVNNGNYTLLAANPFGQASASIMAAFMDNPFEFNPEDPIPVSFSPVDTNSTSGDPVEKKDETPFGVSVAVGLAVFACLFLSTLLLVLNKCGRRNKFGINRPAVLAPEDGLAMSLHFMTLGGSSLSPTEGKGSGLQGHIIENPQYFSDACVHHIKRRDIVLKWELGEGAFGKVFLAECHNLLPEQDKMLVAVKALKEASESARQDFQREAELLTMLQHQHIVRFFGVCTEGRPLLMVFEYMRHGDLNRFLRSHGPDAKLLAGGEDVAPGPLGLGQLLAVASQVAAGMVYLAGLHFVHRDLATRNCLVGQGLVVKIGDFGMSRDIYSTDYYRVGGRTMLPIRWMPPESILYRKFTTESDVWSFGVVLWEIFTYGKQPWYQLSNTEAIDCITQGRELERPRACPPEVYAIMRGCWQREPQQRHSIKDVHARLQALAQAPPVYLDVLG
NT-3 growth factor receptor, sequence (Q16288 whole entry, the tested form may be a part): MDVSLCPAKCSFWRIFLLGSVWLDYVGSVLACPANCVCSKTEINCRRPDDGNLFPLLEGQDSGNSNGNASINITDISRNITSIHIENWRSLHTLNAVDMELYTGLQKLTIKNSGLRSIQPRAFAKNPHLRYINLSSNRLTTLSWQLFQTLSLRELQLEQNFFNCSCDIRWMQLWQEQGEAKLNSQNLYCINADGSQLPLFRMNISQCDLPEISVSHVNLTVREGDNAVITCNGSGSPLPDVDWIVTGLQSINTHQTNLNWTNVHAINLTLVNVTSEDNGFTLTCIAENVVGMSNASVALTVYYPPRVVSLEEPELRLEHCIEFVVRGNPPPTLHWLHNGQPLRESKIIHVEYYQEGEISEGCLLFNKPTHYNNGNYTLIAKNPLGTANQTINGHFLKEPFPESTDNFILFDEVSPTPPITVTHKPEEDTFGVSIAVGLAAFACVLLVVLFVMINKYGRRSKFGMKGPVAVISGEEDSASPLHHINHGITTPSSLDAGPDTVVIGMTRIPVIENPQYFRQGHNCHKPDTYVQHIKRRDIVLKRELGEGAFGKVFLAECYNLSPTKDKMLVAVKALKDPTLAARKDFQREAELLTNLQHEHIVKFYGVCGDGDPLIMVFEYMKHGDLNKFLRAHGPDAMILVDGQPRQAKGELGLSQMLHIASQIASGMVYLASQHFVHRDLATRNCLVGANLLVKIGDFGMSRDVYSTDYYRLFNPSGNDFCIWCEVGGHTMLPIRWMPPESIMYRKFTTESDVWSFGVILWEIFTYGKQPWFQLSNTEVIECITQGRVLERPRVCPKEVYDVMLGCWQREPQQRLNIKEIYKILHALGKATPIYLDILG
Tyrosine-protein kinase BTK, sequence (Q06187 whole entry): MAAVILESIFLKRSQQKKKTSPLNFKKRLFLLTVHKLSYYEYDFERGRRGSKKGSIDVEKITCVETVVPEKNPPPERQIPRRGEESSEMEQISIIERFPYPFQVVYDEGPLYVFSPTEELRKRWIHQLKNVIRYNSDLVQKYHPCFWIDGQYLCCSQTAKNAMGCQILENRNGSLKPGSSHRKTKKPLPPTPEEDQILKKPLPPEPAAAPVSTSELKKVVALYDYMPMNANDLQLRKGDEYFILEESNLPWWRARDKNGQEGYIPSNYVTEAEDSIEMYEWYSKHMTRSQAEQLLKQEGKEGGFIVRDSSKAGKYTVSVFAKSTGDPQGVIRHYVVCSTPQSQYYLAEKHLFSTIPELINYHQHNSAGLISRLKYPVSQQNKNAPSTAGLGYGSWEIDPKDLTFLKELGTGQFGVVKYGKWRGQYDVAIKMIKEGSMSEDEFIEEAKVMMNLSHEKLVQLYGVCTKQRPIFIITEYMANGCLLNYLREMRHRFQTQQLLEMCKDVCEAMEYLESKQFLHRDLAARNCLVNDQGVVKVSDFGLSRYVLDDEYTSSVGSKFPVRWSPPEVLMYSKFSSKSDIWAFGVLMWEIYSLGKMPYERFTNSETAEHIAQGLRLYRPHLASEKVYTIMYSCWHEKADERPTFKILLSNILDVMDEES
RAF proto-oncogene serine/threonine-protein kinase, sequence (P04049 whole entry, the tested form may be a part): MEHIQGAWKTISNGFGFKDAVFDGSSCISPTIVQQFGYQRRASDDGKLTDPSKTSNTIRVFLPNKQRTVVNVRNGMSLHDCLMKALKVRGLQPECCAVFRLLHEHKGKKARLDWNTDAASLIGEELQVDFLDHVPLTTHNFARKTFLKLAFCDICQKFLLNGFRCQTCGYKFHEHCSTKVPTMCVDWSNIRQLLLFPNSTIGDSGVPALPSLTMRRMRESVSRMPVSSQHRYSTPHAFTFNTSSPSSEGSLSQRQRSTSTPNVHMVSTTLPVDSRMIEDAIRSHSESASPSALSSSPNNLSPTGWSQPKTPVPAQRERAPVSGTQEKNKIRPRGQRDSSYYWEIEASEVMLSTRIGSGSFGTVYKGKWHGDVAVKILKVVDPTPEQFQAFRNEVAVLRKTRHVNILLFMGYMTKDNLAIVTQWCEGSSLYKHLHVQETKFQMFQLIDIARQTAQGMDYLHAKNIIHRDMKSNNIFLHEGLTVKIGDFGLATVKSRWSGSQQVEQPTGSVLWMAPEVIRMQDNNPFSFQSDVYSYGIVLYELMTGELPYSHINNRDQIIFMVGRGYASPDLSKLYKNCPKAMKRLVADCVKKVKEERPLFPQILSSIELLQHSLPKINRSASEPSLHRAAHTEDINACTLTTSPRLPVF

Compound: CN1CCN(c2ccc(C(=O)Nc3n[nH]c4ccc(Cc5cc(F)cc(F)c5)cc34)c(NC3CCOCC3)c2)CC1 [ENTRECTINIB]
IC50 (SU-DHL-1): 20 nM | IC50 (KARPAS-299): 31 nM | IC50 (cells [4]): 41 nM | IC50 (cells [5]): 81 nM | IC50 (MV4-11): 81 nM

Compound: COCCN1C[C@@H](NC(=O)Nc2cc3c(nc2-c2ccccc2)CCCC3)[C@H](c2ccccc2)C1
IC50 [6]: < 100 nM

Compound: COCCN1C[C@@H](NC(=O)Nc2cc3ccccc3nc2-c2ccccc2)[C@H](c2ccccc2)C1
IC50 [6]: < 100 nM

Compound: CC(C)c1cc(C(=O)c2cccc(NC(=O)Nc3ccc(Cl)cc3Cl)c2)c2c(N)ncnn12
IC50 [7]: < 1 nM | IC50 (NTRK1/NTRK2): < 1 nM

Compound: H-TGLDSDGLYQN-OH
IC50 (OVCAR-3): 200 nM | IC50 (SK-OV-3): 200 nM

Compound: H-NTDLLNSNDNG-OH
IC50 (OVCAR-3): 200 nM | IC50 (SK-OV-3): 200 nM

Compound: COCCN1C[C@@H](NC(=O)Nc2c(C)c(-c3ccnc(C)n3)nn2-c2ccccc2)[C@H](c2cccc(F)c2)C1
IC50 [2]: 1.1 nM | IC50 [3]: 1.9 nM

Compound: CC(C)c1nnc(-c2cnn3ccc(N4CCCC4c4cc(F)ccc4F)nc23)o1 (configuration not stated)
IC50 [11]: < 10 nM

Compound: Cc1cn(-c2cc(C(=O)Nc3cccc(Nc4ccc5c(c4)NC(=O)/C5=C\c4ccc[nH]4)c3)cc(C(F)(F)F)c2)cn1
IC50 (Aurora kinase A): 15 nM | IC50 [12]: 116 nM

Compound: COCCN1C[C@@H](NC(=O)Nc2c(C)c(-c3cnn(C)c3)nn2-c2ccccc2)[C@H](c2ccccc2)C1
IC50 [2]: 1.7 nM | IC50 [3]: 6.1 nM

Compound: N#Cc1cc(F)cc([C@H]2C[C@H](F)CN2c2ccn3ncc(C#N)c3n2)c1
IC50 [17]: < 10 nM

Compound: CC(C)c1nnc(-c2cnn3ccc(N4CCCC4c4cc(F)ccc4F)nc23)s1 (configuration not stated)
IC50 [11]: < 10 nM

Compound: CCN1CCN(Cc2ccc(NC(=O)Nc3nc4ccc(Oc5ccnc(C(=O)NC)c5)cc4s3)cc2C(F)(F)F)CC1
IC50 [9]: 4.42 nM | IC50 [7]: 3.81 nM | GI50 (K562): 51.4 nM | IC50 (KM12): 19 nM

Compound: COCCN1C[C@@H](NC(=O)Nc2cc3cc(OC)c(OC)cc3nc2-c2ccccc2)[C@H](c2ccccc2)C1
IC50 [6]: < 100 nM

Compound: C[C@H](Oc1cc(-c2cnn(C3CCNCC3)c2)cnc1N)c1c(Cl)ccc(F)c1Cl
IC50 (IMR-32): 100 nM

Compound: CN(C)S(=O)(=O)c1cc(-c2cnc3[nH]cc(-c4ccncc4)c3c2)cnc1N
Activity (MIA PaCa-2): <20% | Activity (BXPC-3): <20% | Activity (PANC-1): 30%

Now from value to compound:

inhibition [1]: 100%
Compound: Cc1cc(Nc2cncc(N[C@@H](C)c3ccc(F)cc3)n2)n[nH]1

IC50 [2]: 1.5 nM | IC50 [3]: 1.3 nM
Compound: COCCN1C[C@@H](NC(=O)Nc2c(C)c(C(C)(C)C)nn2-c2ccccc2)[C@H](c2ccc(F)c(F)c2)C1

IC50 [8]: 1.02 nM
Compound: Nc1cc(CNC(=O)c2cc(NC(=O)c3cc(-c4cccc(F)n4)c(Cl)cc3Cl)n(-c3ccccc3)n2)ccn1

IC50 [2]: 0.2 nM | IC50 [9]: 5000 nM | IC50 [10]: 9.67 nM
Compound: CC(C)N1Cc2cc(c(F)cc2F)OCCCNC(=O)c2cnn3ccc1nc23

IC50 [2]: 0.2 nM | IC50 [9]: 1500 nM | IC50 [10]: 0.536 nM
Compound: CC(C)N1Cc2cc(cc(F)c2Cl)O[C@@H](C)CNC(=O)c2cnn3ccc1nc23

IC50 [8]: 1.04 nM
Compound: Nc1cc(CNC(=O)c2cc(NC(=O)c3cc(-c4cccc(F)n4)c(F)cc3Cl)n(-c3ccccc3)n2)ccn1

IC50 [13]: < 1 nM | IC50 [14]: < 10 nM | IC50 [15]: < 10 nM | IC50 [16]: > 500 nM
Compound: Nc1nn2cc(N3CCC[C@@H]3c3cc(F)ccc3F)cnc2c1C(=O)Nc1ccc(F)cc1

IC50 [13]: < 1 nM | IC50 [14]: < 10 nM | IC50 [15]: < 10 nM | IC50 [16]: > 2000 nM
Compound: NC(=O)c1c(N)nn2cc(N3CCC[C@@H]3c3cc(F)ccc3F)cnc12

IC50 [17]: < 10 nM
Compound: COc1ncc(F)cc1[C@H]1C[C@H](F)CN1c1ccn2ncc(C#N)c2n1

IC50 [18]: 2 to 20 nM | Cmax [19]: 788 ng/mL | Tmax [20]: 1 h | AUC [21]: 4351 ng·h/mL | IC50 (KM12): 1.9 nM | half-life [22]: 2.9 h | bioavailability [23]: 32 to 37% | CL/F [24]: 98 L/h | Vd [25]: 48 L
Compound: O=C(Nc1cnn2ccc(N3CCC[C@@H]3c3cc(F)ccc3F)nc12)N1CC[C@H](O)C1.O=S(=O)(O)O [LAROTRECTINIB SULFATE]

IC50 [11]: < 10 nM
Compound: CC(C)(C)c1nnc(-c2cnn3ccc(N4CCCC4c4cc(F)ccc4F)nc23)o1 (configuration not stated)

IC50 [26]: 33 nM
Compound: Cc1cc(Nc2cnc(C#N)c(N[C@@H](C)c3ccc(F)cc3)n2)n[nH]1
